Measured values reported in patent US20250214992A1, “HIGH-PURITY COMPOUND PRODUCTION METHOD AND PURIFICATION METHOD” (SANTEN PHARMACEUTICAL CO., LTD., priority 2022, published 2025).

Test: Ames test
Format: cell-based
Conditions: impurity contained in the prepared AFDX0250; found in the development stage of a pharmaceutical composition

Compound: O=C1Nc2cccnc2N(C(=O)CCl)c2ccccc21 [Compound 1, 11-(2-chloroacetyl)-5,11-dihydro-6H-pyrido[2,3-b][1,4]benzodiazepin-6-one]
- Ames test result: positive
